From patent publication US20080261936A1, “METHODS OF REDUCING THE BODY WEIGHT OF A SUBJECT BY ADMINISTERING A FATTY ACID ESTER OF AN ESTROGEN OR ESTROGEN DERIVATIVE IN AN OIL AND COMPOSITIONS CONTAINING THE SAME” (Manhattan Pharmaceuticals, Inc., priority 2006, published 2008)
Converted amounts (≈) assume the structure as drawn.

Key:
[1] = Oil evaluation: solubility behavior of oleoyl-estrone, 60 mg/g in single oils; type: physicochemical; conditions: for solubility at 96 h: oil or lipid, after 96 hr, more oil added
Method: An oil evaluation was done to determine the solubility behavior of oleoyl-estrone as a function of type of oil, concentration and temperature. The solubility of oleoyl-estrone was evaluated at concentrations of 60 mg/g and 200 mg/g. […]

[2] = Solubility of oleoyl-estrone in binary oil blends, 200 mg/g at room temperature; type: physicochemical
Method: These four types of oils were then evaluated in binary blend systems with an oleoyl-estrone concentration of 200 mg/g at room temperature for 24 hours and 96 hours.

[3] = 60 mg/g in Canola at RT (about 22° C.)
[4] = 60 mg/g in Captex 300-6C at RT (about 22° C.)
[5] = 60 mg/g in Captex 300 EP at RT (about 22° C.)
[6] = 60 mg/g in Corn at RT (about 22° C.)
[7] = 60 mg/g in Labrafac at RT (about 22° C.)
[8] = 60 mg/g in Labrasol at RT (about 22° C.)
[9] = 60 mg/g in Olive at RT (about 22° C.)
[10] = 60 mg/g in Safflower at RT (about 22° C.)
[11] = 60 mg/g in Sesame at RT (about 22° C.)
[12] = 60 mg/g in Soybean at RT (about 22° C.)
[13] = 200 mg/g in Canola:Labrafil (2:1) at RT (about 22° C.)
[14] = 200 mg/g in Captex 300 EP:Labrafil (2:1) at RT (about 22° C.)
[15] = 200 mg/g in Safflower:Labrafil (2:1) at RT (about 22° C.)

CCCCCCCC/C=C\CCCCCCCC(=O)Oc1ccc2c(c1)CC[C@@H]1[C@@H]2CC[C@]2(C)C(=O)CC[C@@H]12 [oleoyl-estrone, [3(Z)]-3-[(1-oxo-9-octadecenyl)oxy]-estra-1,3,5(10)-trien-17-one]
Solubility Cycled to 5° C. after 96 hr ([1]; 60 mg/g in Canola): Dissolved
Solubility After 24 hr [1, 3]: Dissolved
Solubility After 96 hr [1, 3]: Dissolved
Solubility Cycled to 5° C. after 96 hr ([1]; 60 mg/g in Captex 300-6C): Dissolved
Solubility After 24 hr [1, 4]: Dissolved
Solubility After 96 hr [1, 4]: Dissolved
Solubility Cycled to 5° C. after 96 hr ([1]; 60 mg/g in Captex 300 EP): Dissolved
Solubility After 24 hr [1, 5]: Dissolved
Solubility After 96 hr [1, 5]: Dissolved
Solubility Cycled to 5° C. after 96 hr ([1]; 60 mg/g in Corn): Dissolved
Solubility After 24 hr [1, 6]: Dissolved
Solubility After 96 hr [1, 6]: Dissolved
Solubility Cycled to 5° C. after 96 hr ([1]; 60 mg/g in Labrafac): Dissolved
Solubility After 24 hr [1, 7]: Dissolved
Solubility After 96 hr [1, 7]: Dissolved
Solubility Cycled to 5° C. after 96 hr ([1]; 60 mg/g in Labrafil 1944 CS): Dissolved
Solubility After 96 hr ([1]; 60 mg/g in Labrafil 1944 CS at RT (about 22° C.)): NOT Dissolved more oil
Solubility Cycled to 5° C. after 96 hr ([1]; 60 mg/g in Labrafil M 125CS): Dissolved
Solubility After 96 hr ([1]; 60 mg/g in Labrafil M 125CS at RT (about 22° C.)): NOT Dissolved more oil
Solubility After 24 hr [1, 8]: Dissolved
Solubility After 96 hr [1, 8]: Dissolved
Solubility Cycled to 5° C. after 96 hr ([1]; 60 mg/g in Olive): Dissolved
Solubility After 24 hr [1, 9]: Dissolved
Solubility After 96 hr [1, 9]: Dissolved
Solubility Cycled to 5° C. after 96 hr ([1]; 60 mg/g in Safflower): Dissolved
Solubility After 24 hr [1, 10]: Dissolved
Solubility After 96 hr [1, 10]: Dissolved
Solubility Cycled to 5° C. after 96 hr ([1]; 60 mg/g in Sesame): Dissolved
Solubility After 24 hr [1, 11]: Dissolved
Solubility After 96 hr [1, 11]: Dissolved
Solubility Cycled to 5° C. after 96 hr ([1]; 60 mg/g in Soybean): Dissolved
Solubility After 24 hr [1, 12]: Dissolved
Solubility After 96 hr [1, 12]: Dissolved
solubility at 96 h ([1]; Labrafil 1944 CS (oil), in Labrafil 1944 CS at RT (about 22° C.)): ~5000 µg/mL (≈ 9.35 mM)
solubility at 96 h ([1]; Labrafil M 125CS (oil), in Labrafil M 125CS at RT (about 22° C.)): ≤ 3000 µg/mL
Notes (phase separation) [2, 13]: No phase separation
Solubility After 24 hr [2, 13]: Dissolved
Solubility After 96 hr [2, 13]: Dissolved
Notes (phase separation) [2, 14]: No phase separation
Solubility After 24 hr [2, 14]: Dissolved
Solubility After 96 hr [2, 14]: Dissolved
Notes (phase separation) [2, 15]: No phase separation
Solubility After 24 hr [2, 15]: NOT Dissolved
Solubility After 96 hr [2, 15]: Dissolved
Solubility After 24 hr ([2]; 200 mg/g in Soybean:Labrafil (2:1) at RT (about 22° C.)): NOT Dissolved
